# Assay results as given in paper PMC6078708 (Neuropharmacology, 2018).
# Where two headings read alike, the source gives them in different places.
# Experiments:
# α7 nAChR M260L = target: T1, α7 nAChR M260L (Homo sapiens, UniProt P36544, M283L); assay: Two-electrode voltage-clamp recording of mutated α7 nAChR (M260L) in Xenopus oocytes; type: cell-based; conditions: for activity at 100 µM: read-out: normalised response to EC50 ACh in presence of compound
# T1 construct: expressed in transfected cells; host or cells: Xenopus laevis oocytes, injected with in vitro transcribed cRNA
# T1 sequence (P36544 23-502 M283L): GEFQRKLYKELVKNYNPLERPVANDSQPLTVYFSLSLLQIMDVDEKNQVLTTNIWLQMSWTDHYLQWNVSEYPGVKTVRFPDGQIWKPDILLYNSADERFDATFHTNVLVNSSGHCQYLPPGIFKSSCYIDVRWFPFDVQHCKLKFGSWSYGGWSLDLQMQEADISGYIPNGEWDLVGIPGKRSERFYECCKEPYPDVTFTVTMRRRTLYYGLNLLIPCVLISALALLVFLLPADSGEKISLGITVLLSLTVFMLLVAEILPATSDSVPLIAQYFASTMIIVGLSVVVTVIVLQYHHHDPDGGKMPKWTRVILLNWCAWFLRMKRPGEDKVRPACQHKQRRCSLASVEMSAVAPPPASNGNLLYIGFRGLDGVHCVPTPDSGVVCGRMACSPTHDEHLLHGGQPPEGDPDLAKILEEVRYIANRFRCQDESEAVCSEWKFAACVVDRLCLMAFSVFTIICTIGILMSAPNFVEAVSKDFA
# Method: (§1) Site-directed mutagenesis was performed using the QuikChange mutagenesis kit (Agilent Technologies) and verified by nucleotide sequencing (Source Bioscience).
# (§2) Heterologous expression was achieved by cytoplasmic injection of in vitro transcribed cRNA. Prior to in vitro synthesis of cRNA plasmid cDNA was linearized by restriction enzyme digestion and purified with QIAQuik PCR purification kit (Qiagen). In vitro synthesis of cRNA was performed using mMessage mMachine SP6 and T7 transcription kits (ThermoFisher Scientific). Oocytes were injected with approximately 9 ng cRNA using a Drummond variable volume microinjector. […] Experiments were performed on oocytes after 3–5 days of incubation. […] Application of compounds was controlled by LabChart software (AD Instruments) using a BPS-8 solenoid valve solution exchange system (ALA Scientific Inc). Allosteric modulators were pre-applied for 30 s before co-application with agonist.
# (§3) Data are presented as means ± SEM of at least three independent experiments, that were conducted on separate oocytes. For multiple comparisons, statistical significance was determined with an unpaired one-way analysis of variance (ANOVA). Post-hoc analysis was performed with a Tukey multiple comparison test. For individual comparisons, statistical significance was determined using unpaired t-tests.
# mouse 5-HT3AR = target: T2, mouse 5-HT3AR (Mus musculus, UniProt P23979); conditions: for response evoked by maximal agonist concentration in presence of compound: compound 100 μM, 30 μM 5-HT
# T2 sequence (P23979 24-489): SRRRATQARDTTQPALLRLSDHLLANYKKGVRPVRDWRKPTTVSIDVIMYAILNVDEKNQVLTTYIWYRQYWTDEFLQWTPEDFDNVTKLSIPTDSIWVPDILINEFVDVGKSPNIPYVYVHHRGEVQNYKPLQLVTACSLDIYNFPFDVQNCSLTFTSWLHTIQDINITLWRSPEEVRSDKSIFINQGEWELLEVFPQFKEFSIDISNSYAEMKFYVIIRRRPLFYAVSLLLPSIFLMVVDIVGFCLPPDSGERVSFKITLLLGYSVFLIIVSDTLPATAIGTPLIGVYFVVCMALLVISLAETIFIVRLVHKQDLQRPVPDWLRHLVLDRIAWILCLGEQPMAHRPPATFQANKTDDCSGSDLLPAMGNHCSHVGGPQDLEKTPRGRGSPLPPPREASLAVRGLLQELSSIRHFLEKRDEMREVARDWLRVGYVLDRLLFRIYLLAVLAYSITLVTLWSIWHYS
# Method: as §1, §2, §3
# [1] = target: α7/5-HT3AR chimera (extracellular domain of human α7 nAChR fused to transmembrane and C-terminal domain of mouse 5-HT3AR) (UniProt P23979+P36544, M226I/T225I); conditions: for effect on response evoked by maximal agonist concentration: compound 100 μM, 3 mM ACh
# Sequence of α7/5-HT3AR chimera (extracellular domain of human α7 nAChR fused to transmembrane and C-terminal domain of mouse 5-HT3AR) (P36544+P23979 fused P36544:T225I/P36544:M226I): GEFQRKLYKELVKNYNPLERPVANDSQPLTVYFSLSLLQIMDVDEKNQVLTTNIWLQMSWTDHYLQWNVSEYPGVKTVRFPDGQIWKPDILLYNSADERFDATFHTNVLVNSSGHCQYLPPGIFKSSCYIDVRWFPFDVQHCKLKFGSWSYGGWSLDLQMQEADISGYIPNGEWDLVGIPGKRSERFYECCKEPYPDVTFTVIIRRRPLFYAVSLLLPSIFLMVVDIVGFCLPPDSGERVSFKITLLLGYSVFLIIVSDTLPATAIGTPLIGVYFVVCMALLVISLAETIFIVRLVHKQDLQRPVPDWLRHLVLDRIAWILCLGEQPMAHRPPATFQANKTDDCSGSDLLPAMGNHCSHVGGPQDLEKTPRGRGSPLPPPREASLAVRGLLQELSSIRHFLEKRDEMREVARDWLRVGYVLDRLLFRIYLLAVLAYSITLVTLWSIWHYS
# Method: as §1, §2, §3
# human α7 nAChR = target: T3, human α7 nAChR (Homo sapiens, UniProt P36544); assay: Two-electrode voltage-clamp recording of wild-type human α7 nAChR expressed in Xenopus oocytes; type: cell-based; conditions: for nature of antagonism against a range of ACh concentrations / response evoked by maximal agonist concentration in presence of compound: compound 100 μM; for response evoked by maximal agonist concentration in presence of compound: 3 mM ACh; for response to an EC50 concentration of ACh, % of the control response: compound 1 mM, ACh 100 μM; for effect when applied alone: no ACh; for activity at 100 µM: read-out: normalised response to EC50 ACh in presence of compound
# T3 construct: expressed in transfected cells; host or cells: Xenopus laevis oocytes, injected with in vitro transcribed cRNA
# T3 sequence (P36544 23-502): as the sequence (P36544 23-502 M283L) above, with L261M counted along it
# Method: as §2, with “Allosteric modulators were pre-applied for 30 s before co-application with agonist.” left out
# as §3
# α7 nAChR L247A = target: T4, α7 nAChR L247A (Homo sapiens, UniProt P36544, L247A/L270A); assay: Two-electrode voltage-clamp recording of mutated α7 nAChR (L247A) in Xenopus oocytes; type: cell-based
# T4 construct: expressed in transfected cells; host or cells: Xenopus laevis oocytes, injected with in vitro transcribed cRNA
# T4 sequence (P36544 23-502 L247A/L270A): as the sequence (P36544 23-502 M283L) above, with L225A, L248A, L261M counted along it
# Method: as §1, §2, §3
# α7 nAChR T288A = α7 nAChR T288A (Homo sapiens, UniProt P36544, T311A); assay: cell-based
# Sequence of α7 nAChR T288A (P36544 23-502 T311A): as the sequence (P36544 23-502 M283L) above, with L261M, T289A counted along it
# Method: as §1, §2, §3
# α7 nAChR S248A = α7 nAChR S248A (Homo sapiens, UniProt P36544, S271A); assay: cell-based
# Sequence of α7 nAChR S248A (P36544 23-502 S271A): as the sequence (P36544 23-502 M283L) above, with S249A, L261M counted along it
# Method: as §1, §2, §3
# α7 nAChR S222M = target: T5, α7 nAChR S222M (Homo sapiens, UniProt P36544, S245M); assay: Two-electrode voltage-clamp recording of mutated α7 nAChR (S222M) in Xenopus oocytes; type: cell-based
# T5 construct: expressed in transfected cells; host or cells: Xenopus laevis oocytes, injected with in vitro transcribed cRNA
# T5 sequence (P36544 23-502 S245M): as the sequence (P36544 23-502 M283L) above, with S223M, L261M counted along it
# Method: as §1, §2, §3
# [2] = co-application only, no pre-application
# [3] = read-out: normalised response to EC50 ACh in presence of compound
# [4] = furosemide 1 mM, EC50 ACh (100 μM)
# [5] = furosemide 1 mM, EC50 agonist (100 μM ACh)
# [6] = furosemide 1 mM, maximal agonist (3 mM ACh)
compound,measurement,setting,value
"Cc1cc(C)[n+](CCc2ccc(S(N)(=O)=O)cc2)c(C)c1 [DB04763, 1-N-(4-sulfamoylphenyl-ethyl)-2,4,6-tri methyl p yr id i ni u m]",activity at 100 µM,α7 nAChR M260L,30.1 ± 2.4%
same,response evoked by maximal agonist concentration in presence of compound,mouse 5-HT3AR,92.1 ± 1.7%
same,effect on response evoked by maximal agonist concentration,[1],not significantly different to their effects on 5-HT3ARs
same,type of allosteric modulation,human α7 nAChR,NAMs
same,antagonism in the absence of pre-application,human α7 nAChR; [2],significant antagonism
same,nature of antagonism against a range of ACh concentrations,human α7 nAChR,non-surmountable
same,response evoked by maximal agonist concentration in presence of compound,human α7 nAChR,20.0 ± 1.3%
same,"response to an EC50 concentration of ACh, % of the control response",human α7 nAChR,3.4 ± 0.9%
same,effect when applied alone,human α7 nAChR; compound alone,None of the three compounds had any significant effect when applied alone
same,IC50,human α7 nAChR; read-out: IC50 for inhibition of agonist-evoked responses,46.4 ± 2.2 µM
same,activity at 100 µM,human α7 nAChR,20.1 ± 3.1%
same,activity at 100 µM,α7 nAChR L247A; [3],52.4 ± 0.8%
"CNS(=O)(=O)c1ccc(N/C=C2\C(=O)Nc3ccccc32)cc1 [DB08122, N-methyl-4-{[(2-oxo-1,2-dihydro-3h-indol-3-ylidene)methyl]amino}b en z en esul fon ami de]",activity at 100 µM,α7 nAChR M260L,101 ± 3.1%
same,activity at 100 µM,α7 nAChR T288A; [3],65 ± 1.2%
same,activity at 100 µM,α7 nAChR S248A; [3],99.6 ± 1.6%
same,response evoked by maximal agonist concentration in presence of compound,mouse 5-HT3AR,did not cause significant inhibition
same,effect on response evoked by maximal agonist concentration,[1],not significantly different to their effects on 5-HT3ARs
same,IC50,human α7 nAChR,1700 ± 300 µM
same,type of allosteric modulation,human α7 nAChR,NAMs
same,antagonism in the absence of pre-application,human α7 nAChR; [2],significant antagonism
same,nature of antagonism against a range of ACh concentrations,human α7 nAChR,non-surmountable
same,response evoked by maximal agonist concentration in presence of compound,human α7 nAChR,76.0 ± 4.8%
same,"response to an EC50 concentration of ACh, % of the control response",human α7 nAChR,60.6 ± 1.2%
same,effect when applied alone,human α7 nAChR; compound alone,None of the three compounds had any significant effect when applied alone
same,activity at 100 µM,human α7 nAChR,90.6 ± 1.8%
same,activity at 100 µM,α7 nAChR S222M; [3],77.2 ± 3.7%
"NS(=O)(=O)c1cc(C(=O)O)c(NCc2ccco2)cc1Cl [furosemide, Furosemide]","agonist-evoked response in presence of furosemide, of the control response",α7 nAChR M260L; [4],63 ± 8%
same,"ACh-evoked response in presence of furosemide, relative to control response",α7 nAChR T288A; [4],99.2 ± 1.2%
same,"ACh-evoked response in presence of furosemide, relative to control response",α7 nAChR S248A; [4],102 ± 5.6%
same,agonist effect when applied alone,"mouse 5-HT3AR; compound alone, no 5-HT",no agonist effect
same,agonist-evoked response in presence of furosemide,"mouse 5-HT3AR; furosemide 1 mM, EC50 agonist (1 μM 5-HT)",93.9 ± 3.7%
same,agonist-evoked response in presence of furosemide (potentiation),"mouse 5-HT3AR; furosemide 1 mM, maximal agonist (30 μM 5-HT)",108 ± 2%
same,agonist-evoked response in presence of furosemide,[1]; [5],98.2 ± 3.4%
same,agonist-evoked response in presence of furosemide (potentiation),[1]; [6],108 ± 2%
same,type of allosteric modulation,human α7 nAChR,type I PAM
same,potentiation of ACh responses in the absence of pre-application,human α7 nAChR; [2],no significant potentiation
same,maximum level of potentiation of ACh responses,human α7 nAChR; furosemide 1 mM,1.6 ± 0.1 fold
same,effect when applied alone,human α7 nAChR; furosemide 1 mM,no effect
same,agonist-evoked response in presence of furosemide (potentiation),human α7 nAChR; [5],136 ± 7%
same,agonist-evoked response in presence of furosemide (potentiation),human α7 nAChR; [6],149 ± 6%
same,EC50,human α7 nAChR; read-out: EC50 for potentiation of agonist-evoked responses,200 ± 40 µM
same,potentiation of an EC50 concentration of ACh by furosemide,α7 nAChR S222M; [4],244 ± 25%
same,"ACh-evoked response in presence of furosemide, relative to control response","α7 nAChR L247A; furosemide 1 mM, EC50 ACh (10 μM)",99.9 ± 4.3%
